Measurements published in patent US10639299B2, “Calcium sensing receptors, ligands, compositions, and methods of use” (Georgia State University Research Foundation, Inc., priority 2016, dated 2020).

Target: T1, hCaSR-ECD (Homo sapiens, UniProt P41180)
T1 construct: made in house; host or cells: HEK293S (GnTI-) suspension culture, secreted
T1 sequence (P41180 20-612): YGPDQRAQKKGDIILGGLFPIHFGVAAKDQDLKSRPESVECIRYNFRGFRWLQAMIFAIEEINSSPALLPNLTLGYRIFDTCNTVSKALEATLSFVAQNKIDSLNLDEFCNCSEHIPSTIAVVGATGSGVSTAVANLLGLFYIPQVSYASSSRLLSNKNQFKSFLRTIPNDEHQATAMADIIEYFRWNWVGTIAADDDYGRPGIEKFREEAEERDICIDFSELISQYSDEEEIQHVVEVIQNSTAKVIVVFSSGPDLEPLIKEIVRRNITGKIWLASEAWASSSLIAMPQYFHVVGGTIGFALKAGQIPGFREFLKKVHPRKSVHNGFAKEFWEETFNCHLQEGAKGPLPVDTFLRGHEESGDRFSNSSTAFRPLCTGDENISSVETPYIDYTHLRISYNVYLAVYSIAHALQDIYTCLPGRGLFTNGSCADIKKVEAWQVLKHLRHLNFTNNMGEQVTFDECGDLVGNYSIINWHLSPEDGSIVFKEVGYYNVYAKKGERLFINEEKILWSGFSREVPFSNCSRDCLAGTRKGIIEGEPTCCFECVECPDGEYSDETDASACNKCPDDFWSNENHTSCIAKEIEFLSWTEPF
Assay: Phenylalanine replacement of TNCA bound to hCaSR-ECD, LC-ESI-MS
Assay type: binding
Conditions: overnight, 838 at 0 mM
Procedure: Considering CaSR ligand is tightly bound with hCaSR-ECD, it is conceivable that hCaSR-ECD has to be denatured to release CaSR ligand. To extract CaSR ligand, 50 μL of purified hCaSR-ECD (10 mg/mL) was mixed with 120 μL acetonitrile and vortexed. After high speed centrifugation, 10 μL of the CaSR ligand extract was injected onto a reverse-phase ACQUITY UPLC BEH C18 column (2.1 mm×100 mm, 1.7-μm particle size; Waters). Column temperature was maintained at 40° C. The flow rate was 0.3 mL/min with starting conditions at 99% solvent A (water+0.1% formic acid) and 1% solvent B (acetonitrile). The 15-min gradient profile for elution was as follows: starting at 1% solvent B and hold for 1 min, then ramping to 98% B at 10 min, hold at 98% B to 12 min, at 12.01 min return to 99% A/1% B and maintain until 15 min. The samples were analyzed by using a Waters Xevo G2-XS QToF LC-MS interfaced to a Waters Acquity UPLC system. […] Fragmentation, formula, and abundances were analyzed with Waters MassLynx Software.
A phenylalanine replacement experiment was carried out by mixing purified hCaSR-ECD protein (0.26 mg/mL) with phenylalanine (final concentrations are 0, 50 and 150 mM, respectively). […] The protein samples were adjusted to the same concentration using SEC buffer and analyzed by LC-ESI-MS.

- area under the MS peak of TNCA remaining bound to hCaSR-ECD (50 mM phenylalanine): 180
- area under the MS peak of TNCA remaining bound to hCaSR-ECD (150 mM phenylalanine): 76
Compound: N[C@@H](Cc1ccccc1)C(=O)O [Phe, phenylalanine]
